# Measured values taken from patent US6521630B1, “Tetrahydroquinazoline-2,4-diones and therapeutic uses thereof” (Pfizer Inc., priority 1999, dated 2003).
# Counter-ions that a name gives are not always drawn.
row,SMILES,melting point [°C]
1,O=c1[nH]c2cccc(Cl)c2c(=O)n1CCCN1CC=C(c2ccc(Cl)cc2)CC1 (as salt: maleate),190 to 194
2,O=c1[nH]c2cc(F)ccc2c(=O)n1CCCN1CC=C(c2ccc(Cl)cc2)CC1 (as salt: maleate),197 to 198
3,Cc1ccc(C)c2c(=O)n(CCCN3CC=C(c4ccc(Cl)cc4)CC3)c(=O)[nH]c12 (as salt: maleate),212 to 220
4,Cc1cccc2[nH]c(=O)n(CCCN3CC=C(c4ccc(Cl)cc4)CC3)c(=O)c12 (as salt: maleate),175 to 178
5,Cc1ccc(C2=CCN(CCCn3c(=O)[nH]c4cccc(C)c4c3=O)CC2)cc1 (as salt: maleate),165 to 170
6,O=c1[nH]c2c(Cl)cc(Cl)cc2c(=O)n1CCCN1CC=C(c2ccc(Cl)cc2)CC1 (as salt: maleate),197 to 199
7,O=c1[nH]c2c(Cl)cccc2c(=O)n1CCCN1CC=C(c2cccc(C(F)(F)F)c2)CC1 (as salt: maleate),205 to 210
8,Cc1cccc2[nH]c(=O)n(CCCN3CC=C(c4cccc(C(F)(F)F)c4)CC3)c(=O)c12 (as salt: maleate),158 to 160
9,Cc1c(Cl)ccc2c(=O)n(CCCN3CC=C(c4ccc(Cl)cc4)CC3)c(=O)[nH]c12 (as salt: maleate),208 to 210
10,Cc1cc(Br)c2[nH]c(=O)n(CCCN3CC=C(c4ccc(Cl)cc4)CC3)c(=O)c2c1 (as salt: maleate),212 to 214
11,Cc1cccc2c(=O)n(CCCN3CC=C(c4ccc(Cl)cc4)CC3)c(=O)[nH]c12 (as salt: maleate),215 to 217
12,O=c1[nH]c2ccc([N+](=O)[O-])cc2c(=O)n1CCCN1CC=C(c2ccc(Cl)cc2)CC1 (as salt: maleate),205 to 207
13,O=c1[nH]c2cc(Cl)ccc2c(=O)n1CCCN1CC=C(c2ccc(Cl)cc2)CC1 (as salt: maleate),225 to 227
14,Cc1ccc2c(=O)n(CCCN3CC=C(c4ccc(Cl)cc4)CC3)c(=O)[nH]c2c1 (as salt: maleate),199 to 201
15,O=c1[nH]c2c(O)cccc2c(=O)n1CCCN1CC=C(c2ccc(Cl)cc2)CC1 (as salt: hydrobromid),284 to 286
16,O=c1[nH]c2cc([N+](=O)[O-])ccc2c(=O)n1CCCN1CC=C(c2ccc(Cl)cc2)CC1 (as salt: maleate),210 to 212
17,O=c1[nH]c2ccc(Cl)cc2c(=O)n1CCCN1CC=C(c2ccc(Cl)cc2)CC1 (as salt: maleate),197 to 198
